# Experiments:
# [1] = Sulfur compound adsorption in the presence of mint oil (sniff test), allyl mercaptan; details: Allyl mercaptan 5 ppb (w/v), mint oil 50 ppb, adsorbent 0.1% w/v, 20 minutes of shaking, sniffed
# Protocol: (§1) All dilution operations were done using water under nitrogen in capped bottles. Hydrogen sulfide was measured as a gas in a syringe and injected into a sealed bottle containing deoxygenated water. The concentration (ppb w/w) was calculated assuming all of the hydrogen sulfide (H2S) dissolved in the water after shaking, and using the density of the gas.
# (§2) All of the liquid compounds were handled by syringe. Concentrations of thiols are reported assuming that their specific gravity is 1. Adsorbents, as made by Example 1, were weighed as dry powders into bottles before sealing and before the addition of room temperature dilute sulfide solution. After 20 minutes of shaking, the bottle was unsealed and the contents carefully sniffed.
# (§3) The object of the experiment was to remove the thiol odor but not to remove the mint oil aroma.
# [2] = Sulfur compound adsorption in the presence of mint oil (sniff test), hydrogen sulfide; details: H2S 50 ppb, mint oil 50 ppb, adsorbent 0.1% w/v, 20 minutes of shaking, sniffed
# Protocol: as §1, §2, §3
# [3] = Sulfur compound adsorption in the presence of mint oil (sniff test), diallyl disulfide; details: Diallyl disulfide 5 ppb (w/v), mint oil 50 ppb, adsorbent 0.1% w/v, 20 minutes of shaking, sniffed
# Protocol: as §1, §2, §3
# [4] = Sulfur compound adsorption in the presence of mint oil (sniff test), propane thiol; details: Propane thiol 5 ppb (w/v), mint oil 50 ppb, adsorbent 0.1% w/v, 20 minutes of shaking, sniffed
# Protocol: as §1, §2, §3
# [5] = Activity of metal complexes in removing garlic odor (sniffed for residual odor); parameters: key: ++: complete odor removal; +: slight odor remaining; −: no odor removal; NA: complex was not insoluble; ?: allyl mercaptan smell masked by methionine smell; details: 5 ml solution with 627 nmol allyl mercaptan in water, sealed vial, 10 minutes, room temperature
# Protocol: Each amino acid solution was made by dissolving 2.74 g of the amino acid into 40 ml of water. The complex with the metal was synthesized as described in the second step of Example 1.
# Odor removal was tested using 5 ml of a solution containing 627 nmol of allyl mercaptan in water. A suspension of the metal complex was mixed with the mercaptan solution, reacted in a sealed vial for 10 minutes at room temperature, and then sniffed for residual odor.
substance,measurement,setting,value
Cystine-copper Complex,"Smell Garlic, Effect",[1],v. faint
same,"Smell Garlic, Effect",[2],None
same,"Smell Mint, Effect",[2],strong
same,"Smell Garlic, Effect",[3],v. weak
same,"Smell Garlic, Effect",[4],Faint
same,Activity in removing garlic odor,[5],++
